Laboratory results: patent US4452778A, “Synergistic antibacterial compositions and method of treatment of infections caused by multiple antibiotic-resistant organisms” (Eli Lilly and Company, priority 1981, dated 1984)
Read-outs that look alike come from different tables or passages of the source.

Tests used:
[1] = system: Pseudomonas aeruginosa; test: Checkerboard broth dilution synergy study (mic); format: cell-based; conditions: Table II; for MIC: Pseudomonas aeruginosa, read-out: mic, drug alone
[2] = system: Proteus mirabilis; test: Checkerboard broth dilution synergy study (mic); format: cell-based; conditions: Proteus mirabilis; Table II, strain Allen; read-out: mic, drug alone
[3] = system: Proteus rettgeri; test: Checkerboard broth dilution synergy study (mic); format: cell-based; conditions: Providencia rettgeri, Table II, strain 65; read-out: mic, drug alone
[4] = system: Proteus vulgaris; test: Checkerboard broth dilution synergy study (mic); format: cell-based; conditions: Proteus vulgaris, Table II, read-out: mic, drug alone
[5] = system: E. coli; test: Checkerboard broth dilution synergy study (mic); format: cell-based; conditions: Table II; for MIC: Escherichia coli, read-out: mic, drug alone
[6] = system: E. cloacae; test: Checkerboard broth dilution synergy study (mic); format: cell-based; conditions: Table II; for MIC: Enterobacter cloacae, read-out: mic, drug alone
[7] = cited from earlier work; for mean serum concentration: end of injection
[8] = system: Serratia marcescens; test: Checkerboard broth dilution synergy study (mic); format: cell-based; conditions: Table II; for MIC: Serratia marcescens, read-out: mic, drug alone
[9] = system: Klebsiella pneumoniae; test: Checkerboard broth dilution synergy study (mic); format: cell-based; conditions: Table II; for MIC: Klebsiella pneumoniae, read-out: mic, drug alone

`CCN1CCN(C(=O)N[C@@H](C(=O)N[C@@H]2C(=O)N3[C@@H]2SC(C)(C)[C@@H]3C(=O)O)c2ccccc2)C(=O)C1=O` [piperacillin, sodium 6-(D(-)-α-(4-ethyl-2,3-dioxo-1-piperazinylcarbonylamino)-α-phenylacetamido]penicillinate] gave an MIC ([1]; strain 84) of 64 µg/mL, an MIC ([1]; strain 366) of over 128 µg/mL and an MIC ([1]; strain 424) of over 128 µg/mL. For the same compound, the MIC ([1]; strain 447) was over 128 µg/mL, the MIC ([1]; strain 1484) was 64 µg/mL and the MIC ([1]; strain Davis) was over 64 µg/mL. The “mic of each drug in combination I + P” value ([1]; strain 84) was 4 µg/mL, the “mic of each drug in combination I + P” value ([1]; strain 366) was 16 µg/mL and the “mic of each drug in combination I + P” value ([1]; strain 424) was 0.5 µg/mL. The “mic of each drug in combination I + P” value ([1]; strain 447) was 0.5 µg/mL, the “mic of each drug in combination I + P” value ([1]; strain 1484) was 8 µg/mL and the “mic of each drug in combination I + P” value ([1]; strain Davis) was 16 µg/mL. For the same compound, the MIC [2] was over 64 µg/mL, the MIC [3] was 64 µg/mL and the MIC ([4]; strain 363) was over 64 µg/mL. It also gave an MIC ([4]; strain Shide) of over 64 µg/mL, an MIC ([5]; strain 46-2) of over 64 µg/mL and an MIC ([5]; strain 77-3) of over 64 µg/mL. The MIC ([5]; strain 136-3) was over 64 µg/mL, the MIC ([5]; strain 1260) was over 64 µg/mL and the MIC ([5]; strain 1262) was over 64 µg/mL. The MIC ([5]; strain Briley) was over 64 µg/mL, the MIC ([5]; strain Dill) was 32 µg/mL and the “mic of each drug in combination I + P” value ([5]; strain 46-2) was 2 µg/mL. The “mic of each drug in combination I + P” value ([5]; strain 1253) was 4 µg/mL, the “mic of each drug in combination I + P” value ([5]; strain 1262) was 64 µg/mL and the “mic of each drug in combination I + P” value ([5]; strain 1415) was 2 µg/mL. For the same compound, the “mic of each drug in combination I + P” value ([5]; strain Briley) was 32 µg/mL, the MIC ([6]; strain 1246) was over 64 µg/mL and the MIC ([6]; strain 1253) was over 64 µg/mL. For the same compound, the MIC ([6]; strain 1415) was over 64 µg/mL, the MIC ([6]; strain B293) was over 64 µg/mL and the “mic of each drug in combination I + P” value ([6]; strain 1253) was 32 µg/mL. For the same compound, the “mic of each drug in combination I + P” value ([6]; strain B293) was 16 µg/mL, the “mean peak serum concentration” value ([7]; single intramuscular dose 0.5 g) was 4.9 µg/mL and the “mean peak serum concentration” value ([7]; single intramuscular dose 1.0 g) was 13.3 µg/mL. For the same compound, the “mean peak serum concentration” value ([7]; single intramuscular dose 2.0 g) was 30.2 µg/mL, the mean serum concentration ([7]; single intravenous bolus 1.0 g) was 70.7 µg/mL and the mean serum concentration ([7]; single intravenous bolus 2.0 g) was 199.5 µg/mL. The mean serum concentration ([7]; single intravenous bolus 4.0 g) was 330.7 µg/mL, the mean serum concentration ([7]; single intravenous bolus 6.0 g) was 451.8 µg/mL and the MIC ([8]; strain 100) was over 64 µg/mL. For the same compound, the MIC ([8]; strain 302-2) was over 64 µg/mL, the MIC ([8]; strain 796) was over 64 µg/mL and the MIC ([8]; strain 14142) was over 64 µg/mL. For the same compound, the MIC ([8]; strain Townsend) was over 64 µg/mL, the “mic of each drug in combination I + P” value ([8]; strain 100) was 32 µg/mL and the “mic of each drug in combination I + P” value ([8]; strain 302-2) was 8 µg/mL. The “mic of each drug in combination I + P” value ([8]; strain 796) was 4 µg/mL, the “mic of each drug in combination I + P” value ([8]; strain 14142) was 8 µg/mL and the “mic of each drug in combination I + P” value ([8]; strain Townsend) was 64 µg/mL. It also gave an MIC ([9]; strain 130) of over 64 µg/mL, an MIC ([9]; strain 214-1) of over 64 µg/mL and an MIC ([9]; strain 463) of over 64 µg/mL. For the same compound, the MIC ([9]; strain 512) was over 64 µg/mL, the MIC ([9]; strain 933) was over 64 µg/mL and the MIC ([9]; strain 1204-2) was over 64 µg/mL. For the same compound, the “mic of each drug in combination I + P” value ([9]; strain 214-1) was 8 µg/mL, the “mic of each drug in combination I + P” value ([9]; strain 463) was 16 µg/mL and the “mic of each drug in combination I + P” value ([9]; strain 512) was 32 µg/mL. The “mic of each drug in combination I + P” value ([9]; strain 1204-2) was 2 µg/mL.
